We go through 18 molecules from patent US20090124672A1 (priority 2007, published 2009).

The subject of assay [1] is Sprague-Dawley rats treated with DMCM. Briefly: Social interaction test, DMCM-induced anxiety. The format is in vivo, rat. The settings on record: 0.5 mg/kg DMCM. The text has this: (§1) Experienced observers blinded to the experimental conditions carried out the social interaction test in a square open field (60 cm by 60 cm, with 16 15×15 cm squares marked out on the floor). Pairs of rats receiving the same treatment were placed in the arena and the onset of social interactions recorded. This procedure has been validated by previous studies (Overstreet et al. (2002); Overstreet et al. (2003)). Rats were unfamiliar with the open field and lighting conditions were low in order to generate an intermediate level of anxiety-related behavior. Rat pairs matched according to weight and treatment were placed simultaneously in the open field. During the 5-min session, line crosses (by two forepaws) and time spent in social interaction (grooming, sniffing, following) were scored individually for each rat (Kampov-Polevoy et al., 2000; Overstreet et al., 2002, 2003).
(§2) Fifteen min later the rats received a second injection of 0.5 mg/kg DMCM (methyl 6,7-demethoxy-4-ethyl-β-carboline-3-carboxylate) or vehicle (acidified saline). The rats were placed in the open field arena 15 min after the second injection for recording social interaction and locomotor activity for 5-min. Approximately one week later the rats were treated with Compound A (3.75, 7.5 or 15 mg/kg). The 5-HT2C agonist mCPP (m-chlorophenylpiperazine; 0.5 mg/kg) or vehicle (saline) was given 15 min later. After another 15 min period, the social interaction and locomotor activity for five min were recorded.

Assay [2] addresses T1, hALDH2 (recombinant human mitochondria ALDH) (Homo sapiens, UniProt P05091).
T1 sequence (P05091 18-517): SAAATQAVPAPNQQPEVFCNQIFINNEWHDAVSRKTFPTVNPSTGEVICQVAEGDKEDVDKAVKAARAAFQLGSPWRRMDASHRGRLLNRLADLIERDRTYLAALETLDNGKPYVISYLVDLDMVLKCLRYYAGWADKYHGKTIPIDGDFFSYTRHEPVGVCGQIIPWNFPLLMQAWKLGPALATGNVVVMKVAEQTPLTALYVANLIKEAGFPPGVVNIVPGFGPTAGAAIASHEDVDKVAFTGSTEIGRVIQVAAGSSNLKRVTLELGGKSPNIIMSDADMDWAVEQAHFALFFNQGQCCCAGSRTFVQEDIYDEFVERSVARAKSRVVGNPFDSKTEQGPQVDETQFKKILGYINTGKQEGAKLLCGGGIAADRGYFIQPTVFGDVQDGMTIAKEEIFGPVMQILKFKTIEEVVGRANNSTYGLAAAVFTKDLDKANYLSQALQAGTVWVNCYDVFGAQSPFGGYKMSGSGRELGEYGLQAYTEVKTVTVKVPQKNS
Briefly: ALDH2 inhibition assay (NADH formation, formaldehyde substrate). The assay is classed as biochemical. The settings on record: for inhibition at 1 µM: read-out: hALDH2 inhibition (IC50 hALDH2 column). An outline of the steps: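 1 nM enzyme in 50 mM sodium phosphate pH 7.4 with 1.2 mM NAD+ and compound at 0.03–1000 nM; reaction started with 0.15 mM formaldehyde at 25 °C. NADH formation followed by fluorescence (ex 340/em 460 nm). IC50 from sigmoidal fits with floating Hill slope; apparent Ki from Morrison equation if tight binding.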

The next assay has as its target T2, hMAO-B (Homo sapiens, UniProt P27338).
T2 construct: purchased Sigma M7441
T2 sequence (P27338 1-520): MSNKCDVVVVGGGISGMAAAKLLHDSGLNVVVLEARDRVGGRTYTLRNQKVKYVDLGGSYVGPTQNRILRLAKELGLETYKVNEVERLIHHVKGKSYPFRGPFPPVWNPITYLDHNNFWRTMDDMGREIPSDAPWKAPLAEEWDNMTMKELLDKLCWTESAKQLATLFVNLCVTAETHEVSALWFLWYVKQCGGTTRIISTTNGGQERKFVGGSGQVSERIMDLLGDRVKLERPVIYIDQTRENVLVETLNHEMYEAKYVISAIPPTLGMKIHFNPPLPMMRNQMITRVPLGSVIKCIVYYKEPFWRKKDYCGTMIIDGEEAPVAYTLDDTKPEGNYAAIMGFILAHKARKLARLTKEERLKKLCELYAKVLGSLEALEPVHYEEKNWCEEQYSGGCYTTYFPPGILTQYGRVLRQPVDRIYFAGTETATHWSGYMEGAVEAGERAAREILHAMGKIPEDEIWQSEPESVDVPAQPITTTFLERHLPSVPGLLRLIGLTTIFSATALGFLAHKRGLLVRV
Briefly: MAO-B inhibition assay (Amplex Red, horseradish peroxidase-coupled). The settings on record: at 10 μM; read-out: hMAO-B inhibition (IC50 hMAO-B). The format is biochemical. As for the experimental part: MAO-A (Sigma M7316) and MAO-B (Sigma M7441) inhibition assays were conducted in 96-well micro-plates according to the method described by Zhou et al. [Analytical Biochemistry 253, 169-174, 1997]. Both assays were performed in potassium phosphate buffer (0.1 M, pH 7.5) containing 0.5 mM tyramine (Sigma T2879), 0.12 mM N-acetyl-3,7-dihydrophenoxazine (Amplex Red, Invitrogen A12222), 1.2 unit/ml horseradish peroxidase (Sigma P2088), 0.6 unit/ml MAO-A or 2.5 unit/ml MAO-B, and various concentrations of test compounds (0.1 nM to 10 uM). Reactions were initiated by the addition of a pre-mixed solution of tyramine, horseradish peroxidase and Amplex Red, and were allowed to proceed at 37° C. for 30 min. Enzyme activities were determined by measuring absorbance at 570 nm (SpectralMax Plate reader), absorbance of oxidized Amplex Red generated by this horseradish peroxidase-coupled reaction. Nonspecifically formed products were determined in the presence of 2 and 10 µM clorgyline and deprenyl for MAO-A and MAO-B, respectively. IC50 values were determined by fitting concentration-inhibition data to sigmoidal dose-response curves with two-floating parameters: IC50 and Hill coefficient.

In assay [3] the test system is Sprague-Dawley rats treated with mCPP. Briefly: Social interaction test, mCPP-induced anxiety. The assay is classed as in vivo, rat.
Excerpt: as §1, §2

One may read the inhibition as the drop in the measured response relative to a control, in per cent. As a reminder, the IC50 is the concentration that inhibits the measured activity by half.

Consider `CCc1c(C(=O)OC)ncc2[nH]c3cc(OC)c(OC)cc3c12` [DMCM, methyl 6,7-demethoxy-4-ethyl-β-carboline-3-carboxylate, reference compound], for which, in assay [1] (15 min before test), the “social interaction (effect of anxiogenic agent)” value is recorded as “substantially reduced social interaction”. For the same molecule, the “locomotor activity (effect of anxiogenic agent)” value in assay [1] (compared to controls) is recorded as “reduced locomotor activity”.

For `N#Cc1ccc(-c2coc3cc(OCc4nnc(-c5cc(F)cc(C(F)(F)F)c5)o4)ccc3c2=O)cc1` [PT-68, 4-[7-({5-[5-fluoro-3-(trifluoromethyl)phenyl](1,3,4-oxadiazol-2-yl)}methoxy)-4-oxochromen-3-yl]benzenecarbonitrile], the inhibition at 1 µM in assay [2] stood at 33%. Moreover, on hMAO-B, the inhibition at 10 µM was determined as 14%.

Regarding `CS(=O)(=O)Nc1ccc(-c2coc3cc(OCc4noc(-c5cc(F)cc(C(F)(F)F)c5)n4)ccc3c2=O)cc1` [PT-70, 7-({5-[3-fluoro-5-(trifluoromethyl)phenyl](1,2,4-oxadiazol-3-yl)}methoxy)-3-{4-[(methylsulfonyl)amino]phenyl}chromen-4-one], the inhibition at 1 µM in assay [2] amounted to 20%. The inhibition at 10 µM on hMAO-B was determined as 11%.

`CS(=O)(=O)c1ccc(-c2coc3cc(OCc4noc(-c5cc(F)cc(C(F)(F)F)c5)n4)ccc3c2=O)cc1` [PT-71, 7-({5-[3-fluoro-5-(trifluoromethyl)phenyl](1,2,4-oxadiazol-3-yl)}methoxy)-3-[4-(methylsulfonyl)phenyl]chromen-4-one]: the inhibition at 1 µM in assay [2] was 8%. In addition, the inhibition at 10 µM on hMAO-B was 11%.

Regarding `CC(=O)c1cccc(-c2coc3cc(OCc4noc(-c5cc(F)cc(C(F)(F)F)c5)n4)ccc3c2=O)c1` [PT-73, 3-(3-acetylphenyl)-7-({5-[3-fluoro-5-(trifluoromethyl)phenyl](1,2,4-oxadiazol-3-yl)}methoxy)chromen-4-one], the inhibition at 1 µM in assay [2] was found to be 18%. For the same molecule, at hMAO-B, the inhibition at 10 µM was 10%.

With `O=c1c(-c2ccc(O)cc2)coc2cc(OCc3nnc(-c4cc(F)cc(C(F)(F)F)c4)o3)ccc12` [PT-74, 7-({5-[3-fluoro-5-(trifluoromethyl)phenyl](1,3,4-oxadiazol-2-yl)}methoxy)-3-(4-hydroxyphenyl)chromen-4-one], in assay [2], the IC50 came to 5 nM. The inhibition at 10 µM at hMAO-B worked out at 22%.

`O=c1c(-c2ccc(O)cc2)coc2cc(OCc3nnc(-c4ccc(F)cc4)o3)ccc12` [PT-81, 7-{[5-(4-fluorophenyl)(1,3,4-oxadiazol-2-yl)]methoxy}-3-(4-hydroxyphenyl)chromen-4-one]: the IC50 in assay [2] came to 0.4 nM. Further, the inhibition at 10 µM on hMAO-B is 12%.

Regarding `O=c1c(-c2ccc(O)cc2)coc2cc(OCc3ccncc3)ccc12` [PT-82, 3-(4-hydroxyphenyl)-7-(4-pyridylmethoxy)chromen-4-one], the IC50 in assay [2] worked out at 5 nM. The inhibition at 10 µM on hMAO-B is 15%.

As to `O=C(COc1ccc2c(=O)c(-c3ccc(O)cc3)coc2c1)Nc1ccccc1C(F)(F)F` [PT-84, 2-[3-(4-hydroxyphenyl)-4-oxochromen-7-yloxy]-N-[2-(trifluoromethyl)phenyl]-acetamide], in assay [2], the IC50 worked out at 15 nM. Moreover, the inhibition at 10 µM on hMAO-B came out at 20%.

Consider `O=c1c(-c2ccc(O)cc2)coc2cc(OCCc3ccccc3)ccc12` [PT-87, 3-(4-hydroxyphenyl)-7-(2-phenylethoxy)chromen-4-one], for which the inhibition at 1 µM in assay [2] turned out to be 0.04%. The inhibition at 10 µM at hMAO-B came out at 21%.

As to `O=c1c(-c2ccc(O)cc2)coc2cc(OCCOc3ccc(Cl)cc3)ccc12` [PT-89, 7-[2-(4-chlorophenoxy)ethoxy]-3-(4-hydroxyphenyl)chromen-4-one], in assay [2], the IC50 came to 22 nM. Further, the inhibition at 10 µM on hMAO-B came out at 32%.

Regarding `C[C@@H](NC(=O)COc1ccc2c(=O)c(-c3ccc(O)cc3)coc2c1)c1ccc(F)cc1` [PT-90, N-[(1R)-1-(4-fluorophenyl)ethyl]-2-[3-(4-hydroxyphenyl)-4-oxochromen-7-yloxy]acetamide], the IC50 in assay [2] is 6 nM. For the same molecule, the inhibition at 10 µM on hMAO-B was found to be 12%.

On to `O=c1c(-c2ccc(O)cc2)coc2cc(OCc3ccccn3)ccc12` [PT-91, 3-(4-hydroxyphenyl)-7-(2-pyridylmethoxy)chromen-4-one], for which the IC50 in assay [2] was 7 nM. The inhibition at 10 µM on hMAO-B stood at 11%.

With `COC(=O)c1coc(COc2ccc3c(=O)c(-c4ccc(O)cc4)coc3c2)n1` [PT-101, methyl 2-{[3-(4-hydroxyphenyl)-4-oxochromen-7-yloxy]methyl}-1,3-oxazole-4-carboxylate], the IC50 in assay [2] came to 5 nM. Besides, the inhibition at 10 µM at hMAO-B was determined as 34%.

As for `C[C@H](NC(=O)COc1ccc2c(=O)c(-c3ccc(O)cc3)coc2c1)c1ccc(F)cc1` [PT-103, N-[(1S)-1-(4-fluorophenyl)ethyl]-2-[3-(4-hydroxyphenyl)-4-oxochromen-7-yloxy]acetamide], the IC50 in assay [2] was found to be 8 nM. The inhibition at 10 µM at hMAO-B was determined as 29%.

`O=c1c(-c2ccc(O)cc2)coc2cc(OC[C@H](O)Cc3ccccc3)ccc12` [PT-109, 7-((2R)-2-hydroxy-3-phenylpropoxy)-3-(4-hydroxyphenyl)chromen-4-one]: the IC50 in assay [2] was found to be 14 nM. Moreover, the inhibition at 10 µM on hMAO-B stood at 26%.

As for `CS(=O)(=O)Nc1ccc(-c2c(O)oc3cc(OCc4cccc(C(=O)O)c4)ccc3c2=O)cc1` [PT-111, 3-[(2-hydroxy-3-{4-[(methylsulfonyl)amino]phenyl}-4-oxochromen-7-yloxy)methyl]-benzoic acid], in assay [2], the IC50 was 3 nM. On hMAO-B, the inhibition at 10 µM was determined as 30%.

Turning to `Clc1cccc(N2CCNCC2)c1` [mCPP, m-chlorophenylpiperazine], the “social interaction (effect of anxiogenic agent)” value in assay [3] (0.5 mg/kg mCPP, 15 min before test) is reported as “low social interaction score”. In addition, the “locomotor activity (effect of anxiogenic agent)” value in assay [3] (0.5 mg/kg mCPP, compared to controls) was “reduced locomotor activity”. Besides, the “locomotor activity compared to vehicle-treated rats receiving mCPP” value in assay [3] (rats receiving mCPP 0.5 mg/kg) is “no effect”.
